Measurements as given in patent US6762200B2, “Oxa(thia)zolidine derivative and anti-inflammatory drug” (Nippon Soda Co. Ltd., priority 2000, dated 2004).

Experiments:
IV-cPLA(2) = target: T1, IV-cPLA(2) (Homo sapiens, UniProt P47712); experiment: PLA(2) activity, hydrolysis of bis-BODIPY FL C11-PC in activated U937 cells; type: cell-based; details: for inhibition at 0.1 µM: U-937, 0.1 μM
T1 sequence (P47712 1-749): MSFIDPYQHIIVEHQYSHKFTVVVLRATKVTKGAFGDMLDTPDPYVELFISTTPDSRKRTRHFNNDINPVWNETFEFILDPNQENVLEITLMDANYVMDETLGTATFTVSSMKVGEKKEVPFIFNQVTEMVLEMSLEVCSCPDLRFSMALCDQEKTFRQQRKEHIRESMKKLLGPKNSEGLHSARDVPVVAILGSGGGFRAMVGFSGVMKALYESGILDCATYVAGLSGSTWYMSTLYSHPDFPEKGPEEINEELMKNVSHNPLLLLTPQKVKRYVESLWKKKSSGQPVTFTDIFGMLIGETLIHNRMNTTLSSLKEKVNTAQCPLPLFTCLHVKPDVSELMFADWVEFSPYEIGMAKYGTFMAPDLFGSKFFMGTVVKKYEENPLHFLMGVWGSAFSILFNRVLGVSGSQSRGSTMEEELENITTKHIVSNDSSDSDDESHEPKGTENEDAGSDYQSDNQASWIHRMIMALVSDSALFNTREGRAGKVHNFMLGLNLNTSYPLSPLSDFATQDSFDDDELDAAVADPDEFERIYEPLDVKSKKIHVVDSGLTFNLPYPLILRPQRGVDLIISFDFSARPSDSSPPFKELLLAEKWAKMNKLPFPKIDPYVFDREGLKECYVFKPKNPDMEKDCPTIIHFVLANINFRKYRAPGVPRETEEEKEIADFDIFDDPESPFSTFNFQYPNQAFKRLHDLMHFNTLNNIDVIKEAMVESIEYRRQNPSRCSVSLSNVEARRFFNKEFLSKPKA
Experimental: The PLA(2) activity was measured by quantitatively analyzing the fluorescent product of hydrolysis from 1,2-bis-(4,4-difluoro-5,7-dimethyl-4-bora-3a,4a-diaza-s-indecene-3-undecanoyl)-sn-glycero-3-phosphocholine (hereinafter referred to bis-BODIPY®FL C11—PC, Molecular Probes, Inc., B-7701) using activated U937 cells (human monoblastic lymphoma cell line) by inflammatory stimulus (Meshulam, T. et al., The journal of Biological Chemistry 267 (30): 21465-21470 (1992); and Solito, E. et al., British Journal of Pharmacology 124: 1675-1683 (1998).). The substrate bis-BODIPY®FL C11—PC is incorporated into cellular membranes, the proximity of the BODIPY FL fluorophores on adjacent phospholipid acyl chains causes fluorescence self-quenching. Separation of the fluorophores upon hydrolytic cleavage of one of the acyl chains by PLA(1) or the PLA(2) results in increased fluorescence. In the activated U937 by inflammatory stimulus, it is shown that this substrate should be cleaved enzymatically by IV-cPLA(2) from the feature of its behaviors including sensitivity profiles against the inhibitors.
The human cell line U937 was purchased from Dai-Nippon Pharmaceuticals Co., Ltd. The cells were maintained by transferring every 3-4 days into RPMI 1640 medium (Sigma Chemical Co., R6504) supplemented with heat-inactivated 10% fetal bovine serum (Fetal Bovine Serum, Sigma Chemical Co., F 4135) in a 5% CO2 humidified atmosphere at 37° C. The cells were transferred into the culture medium described above, containing 1.2% (v/v) dimethylsulfoxide (hereinafter referred to as […], Nacalai tesque Co., Ltd., D 134-45), and pre-cultured for 96 to 120 hours so as to differentiate into the macrophage-like cells to be provided for the assay. The macrophage-like cells were collected and washed by centrifugation with the Assay medium (Dulbecco's phosphate buffered saline (hereinafter referred to as PBS)-2.2 mM glucose-2.5 μm albumin). Then, Phorbol 12-Myristate 13-Acetate (hereinafter referred to as TPA, Sigma Chemical Co., P 8139) was added to the Assay medium to be 1×10^−8M as the final concentration. Then, the macrophage-like cells were further cultured for an hour to be activated (Rzigalinski, B. A. & Rosenthal, M. D., Biochimica et Biophysica Acta 1223: 219-225 (1994); and Gonchar, M. V. et al., Biochemical and Biophysical Research Communication, 249: 829-832 (1998).).
For preparing substrate liposome suspension, bis-BODIPY®FL C11—PC was combined with phosphatidylcholine (Sigma Chemical Co., P 7769) at 1:9 molar ratio in chloroform, and dried under nitrogen flow. The dried mixture was suspended with the Assay medium at 100 μg/mL, voltexed and sonicated for an hour on ice under dark condition.
The test compound was dissolved with DMSO at 30 mM, and the solution diluted with either DMSO or the Assay medium before addition into the reaction mixture. The DMSO concentration in the reaction mixture was controlled so as to be no more than 0.1%. The 30-fold concentration of test compound solution was put into each well of MICRPTEST™ Tissue Culture Plate, 96 Well (Falcon, 3072) at a rate of 2.5 μL/well. To the respective well was added 25 μL/well of the activated U937 cell suspension ([…]), and the cells were pre-cultured for 120 min. at 37° C. in a 5% CO2 atmosphere incubator. 47.5 μL/well of the substrate liposome suspension with 1.5×10^−6M A23187 (Sigma Chemical Co., C 7522) was added into each well to prepare 75 μL/well of the total reaction mixture, followed by culture for 30 min. under the same conditions with shielding against light. 100 μL/well of 0.1% GEDTA (Dojindo Laboratories Co. Ltd., 348-01311) methanol solution was added into each well and mixed to stop the reaction. […]

TPA-induced ear edema = type: in vivo, ICR-strain male mouse; details: topical, 0.3 mg/20 μL/ear × 2; 6 hours after TPA
Experimental: This test was carried out referring to the method of Carlson, R. P. et al. (Agents and Actions, 17(2): 197-204 (1985).) and the method of Chang, J. (European Journal of Pharmacology, 142: 197-205 (1987).). […] 6 hours later, the thickness of each ear at the particular part was respectively measured three times using a digimatic micrometer to calculate the mean value. Ear edema was determined by subtracting the mean thickness of the left ear as without treatment from that of the right ear as TPA-applied. […] As the positive control, 100 mg/kg of Hydrocortisone (Sigma Chemical Co., H 4001) suspension was applied to the mouse similarly as for the compound of the present invention.

[1] = system: acetic acid-induced writhes; experiment: Acetic acid writhing; type: in vivo, ICR-strain male mouse; details: i.p., 10 to 20 min after acetic acid
Experimental: This test was carried out referring to the method of Inoue, K., Motonaga, A. & Nishimura, T (Arzneimittel Forshung/Drug Research, 41 (1): 235-239 (1991)). More specifically, 7.5 mL/kg of 0.9% acetic acid solution was injected intraperitoneally into an ICR-strain male mouse (5 to 7 weeks old), and the induced writhes (characteristic behaviors of convulsive contracting the abdomen, twisting the body and/or extending the legs) were observed. Number of writhes of each mouse was measured during 10 to 20 min. period after acetic acid administration. The compound of the present invention was homogeneously suspended in 2% Tween 80/saline for injection use, and was injected intraperitoneally 30 min. before the induction by the acetic acid injection. Alternatively, the compound of the present invention was homogeneously suspended in 2% Tween 80/distilled water, and was administrated orally two hours before the induction by the acetic acid injection. The analgesic activity of the compounds according to the present invention was evaluated on the basis of the degree of inhibiting the number writhes by the administration of the compounds. As the positive control, indomethacin or aspirin was administrated. The analgesic activity of the compounds according to the present invention measured in this test were exemplified in Table 7.

| Structure (SMILES) | inhibition at 0.1 µM (IV-cPLA(2)) [%] | melting point [°C] | Inhibition (%) (IV-cPLA(2); 0.01 μM) | Ear Edema Inhibition (%) (TPA-induced ear edema) | Number of writhes (Mean ± S.E.) ([1]; 1 mg/kg) | Inhibition (%) (IV-cPLA(2); 0.1 μM) | Number of writhes (Mean ± S.E.) ([1]; 0.3 mg/kg) |
| --- | --- | --- | --- | --- | --- | --- | --- |
| C[C@@H]1NC(=N[N+](=O)[O-])O[C@H]1c1ccc(Cl)cc1 (relative stereo) [Compound 1-10, trans-5-(4-chlorophenyl)-4-methyl-2-nitroiminooxazolidine] | 79 | 123 to 126 | – | – | – | – | – |
| COC1CCCC(NC(=O)N2C(=O)OC(c3ccc4c(c3)CCCC4)C2C)O1 (centres unmarked) [Compound 2-135] | – | – | 64 | 84 | 0.8 ± 0.8 | – | – |
| C[C@H]1[C@H](c2ccc(Cl)cc2)OC(=N[N+](=O)[O-])N1Cc1ccc(Cl)nc1 (relative stereo) [Compound 1-12, trans-5-(4-chlorophenyl)-4-methyl-3-(2-chloro-5-pyridylmethyl)-2-nitroiminooxazolidine] | 52 | – | – | 79 | 10.0 ± 1.1 | – | – |
| Cc1ccc(C2SC(=O)N(C(=O)NC3CCCCO3)C2C)cc1 (centres unmarked) [Compound 2-189] | – | – | 86 | 84 | 0.8 ± 0.5 | – | – |
| CCOC(=O)CCC(NC(=O)N1C(=O)SC(c2ccc(Cl)cc2)C1C)C(=O)OCC (centres unmarked) [Compound 2-26] | – | – | – | 86 | – | 77 | 9.8 ± 1.9 |
| CN=C1OC(c2ccc(C)cc2)C(C)N1C(=O)NC1CCCCO1 (centres unmarked) [Compound 1-22] | – | – | – | 56 | 12.7 ± 4.1 | 84 | – |
